According to the supplement of paper PMC10307832:

What was measured:
Assay in all cases: relative viability (nuclei count vs DMSO), 5 days (fraction); higher = more cells survive
[1] = compound: C1/C(=C\C2=CC=CS2)/C(=O)/C(=C/C3=CC=CS3)/C1 + C[C@]1(O)C[C@@H](c2nc(-c3ccc4ccc(-c5ccccc5)nc4c3)c3c(N)nccn32)C1 [Linsitinib] (partner 1 µM)
How it was run: (§1)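 Each reported value is a median over duplicate plates. It expresses relative viability: treated-well nuclei count divided by vehicle-well nuclei count. Lung cancer cell lines in 1536-well plates were dosed by pin tool a day after seeding, alone with one drug or with a fixed anchor-drug dose plus five library-drug doses (not always all listed) in √10 steps, and nuclei were counted after 5 days.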

[2] = compound: C1/C(=C\C2=CC=CS2)/C(=O)/C(=C/C3=CC=CS3)/C1 + N=C(N)NC(=N)NCCc1ccccc1 [Phenformin] (partner 250 µM)
How it was run: as §1

TPCA-1 + Palbociclib = compound: C1=CC(=CC=C1C2=CC(=C(S2)NC(=O)N)C(=O)N)F [TPCA-1] + CC(=O)c1c(C)c2cnc(Nc3ccc(N4CCNCC4)cn3)nc2n(C2CCCC2)c1=O [Palbociclib] (partner 0.5 µM)
How it was run: as §1

[3] = compound: C[C@]12O[C@H](C[C@]1(O)CO)n1c3ccccc3c3c4c(c5c6ccccc6n2c5c31)CNC4=O [Lestaurtinib] + C[C@]1(O)C[C@@H](c2nc(-c3ccc4ccc(-c5ccccc5)nc4c3)c3c(N)nccn32)C1 [Linsitinib] (partner 1 µM)
How it was run: as §1

UMC-11
relative viability ([1]; first compound 0.2 µM): 1.02
relative viability ([1]; first compound 0.6325 µM): 1.07
relative viability ([1]; first compound 2 µM): 1.03
relative viability ([1]; first compound 20 µM): 1
relative viability ([2]; first compound 0.2 µM): 0.32
relative viability ([2]; first compound 0.6325 µM): 0.365
relative viability ([2]; first compound 20 µM): 0.324
relative viability (TPCA-1 + Palbociclib; first compound 0.04 µM): 0.354
relative viability (TPCA-1 + Palbociclib; first compound 0.1265 µM): 0.316
relative viability (TPCA-1 + Palbociclib; first compound 0.4 µM): 0.299
relative viability (TPCA-1 + Palbociclib; first compound 1.265 µM): 0.408
relative viability (TPCA-1 + Palbociclib; first compound 4 µM): 0.289
relative viability ([3]; first compound 0.005 µM): 1.08
relative viability ([3]; first compound 0.01581 µM): 1.06
relative viability ([3]; first compound 0.05 µM): 0.575
relative viability ([3]; first compound 0.1581 µM): 0.339
relative viability ([3]; first compound 0.5 µM): 0.175
